Experimental data published in patent US6376497B1, “Antifungal azole derivatives having a fluorinated vinyl group and process for preparing same” (Korea Research Institute of Chemical Technology, priority 1999, dated 2002).
≈ marks a conversion by molar mass, not a printed value. Like-named read-outs stand apart in the source and are kept apart here.

How the values were obtained:
[1] = system: Aspergillus furnigatus B. 19119; assay: In vitro antifungal activity, microbroth dilution MIC; type: cell-based; conditions: A furnigatus B. 19119, RPMI-1640, 35° C., 4 to 48 hours
Method in brief: (§1)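 Broth microdilution adapted from NCCLS M27, in RPMI-1640 with 0.165 M MOPS, pH 7.0. Yeast or mould inoculum at 2×10^3 CFU/ml was mixed 1:1 with DMSO-derived compound solutions (200 to 0.10 μg/ml before mixing) and incubated at 35 °C for 4 to 48 h. MIC was the concentration showing no growth.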

[2] = system: Aspergillus niger A. 16404; assay: as above; type: cell-based; conditions: A. niger A. 16404, RPMI-1640, 35° C., 4 to 48 hours
Method in brief: as §1

[3] = system: Candida albicans A. 10231; assay: as above; type: cell-based; conditions: C. albicans A. 10231, RPMI-1640, 35° C., 4 to 48 hours
Method in brief: as §1

Candida albicans C1-2 = assay: as above; type: cell-based; conditions: C. albicans C1-2, RPMI-1640, 35° C., 4 to 48 hours
Method in brief: as §1

[4] = system: Candida albicans IFO. 1385; assay: as above; type: cell-based; conditions: C. albicans IFO. 1385, RPMI-1640, 35° C., 4 to 48 hours
Method in brief: as §1

Candida krusei K. 11655 = assay: as above; type: cell-based; conditions: C. krusei K. 11655, RPMI-1640, 35° C., 4 to 48 hours
Method in brief: as §1

[5] = system: Candida parapsitosis A. 7330; assay: as above; type: cell-based; conditions: C. parapsitosis A. 7330, RPMI-1640, 35° C., 4 to 48 hours
Method in brief: as §1

[6] = system: Candida pseudotropicalis K. 11658; assay: as above; type: cell-based; conditions: C. pseudotropicalis K. 11658, RPMI-1640, 35° C., 4 to 48 hours
Method in brief: as §1

[7] = system: Candida tropicalis A. 13803; assay: as above; type: cell-based; conditions: C. tropicalis A. 13803, RPMI-1640, 35° C., 4 to 48 hours
Method in brief: as §1

[8] = system: Cryptococcus neoformans A. 34144; assay: as above; type: cell-based; conditions: Cry. neoformans A. 34144, RPMI-1640, 35° C., 4 to 48 hours
Method in brief: as §1

[9] = system: Cryptococcus neoformans B. 42419; assay: as above; type: cell-based; conditions: Cry. neoformans B. 42419, RPMI-1640, 35° C., 4 to 48 hours
Method in brief: as §1

[10] = system: Cryptococcus neoformans IFM. 40092; assay: as above; type: cell-based; conditions: Cry. neoformans IFM. 40092, RPMI-1640, 35° C., 4 to 48 hours
Method in brief: as §1

[11] = system: Torulopsis glabrata B. 16205; assay: as above; type: cell-based; conditions: T. glabrata B. 16205, RPMI-1640, 35° C., 4 to 48 hours
Method in brief: as §1

[12] = system: Trichophyton mentagrophytes A. 9129; assay: as above; type: cell-based; conditions: T. mentagrophytes A. 9129, RPMI-1640, 35° C., 4 to 48 hours
Method in brief: as §1

[13] = system: Trichophyton mentagrophytes B. 32663; assay: as above; type: cell-based; conditions: T. mentagrophytes B. 32663, RPMI-1640, 35° C., 4 to 48 hours
Method in brief: as §1

ICR mice = conditions: for LD50: single oral administration in corn oil containing 30% DMSO, observed for 7 days
Procedure: 30 four-week-old, specific pathogen-free ICR mice, 15 female mice each weighing about 15.8 to 22.3 g and 15 male mice each weighing about 18.7 to 25.6 g, were provided by the Animal Center of Korean Research Institute of Chemical and Technology.
When the mice became five-week-old, 15 female mice each weighing about 17.0 to 22.3 g and 15 male mice each weighing about 22.0 to 27.7 g were bred for 6 days before the experiment under an environment of […], 50±10% relative humidity, 12L/12D photoperiod, 10-20 ventilation and 150-300 Lux illumination, with free access to food(Cheil Fodder Co.) which had been sterilized by using 2.0 Mrad radiation and water sterilized by U.V. sterilizer.
The compound of Example 26 of the present invention was dissolved in corn oil containing 30% DMSO and the solution was orally administered in doses of 10, 50, 100, 500, 1,000 and 2,000 mg of the compound/kg of the body weight(10 ml of the sample volume/kg of the body weight). […] The weight changes of the mice were recorded every day to examine the effect of the test compound. Further, on the 7th day, the mice were sacrificed and the internal organs were visually examined.

mouse [14] = conditions: intravenous; cited from earlier work
mouse [15] = conditions: oral; cited from earlier work

Row | Compound | Minimal inhibitory concentration (MIC) [1] [µg/mL] | Minimal inhibitory concentration (MIC) [2] [µg/mL] | Minimal inhibitory concentration (MIC) [3] [µg/mL] | Minimal inhibitory concentration (MIC) (Candida albicans C1-2) [µg/mL] | Minimal inhibitory concentration (MIC) [4] [µg/mL] | Minimal inhibitory concentration (MIC) (Candida krusei K. 11655) [µg/mL] | Minimal inhibitory concentration (MIC) [5] [µg/mL] | Minimal inhibitory concentration (MIC) [6] [µg/mL] | Minimal inhibitory concentration (MIC) [7] [µg/mL] | Minimal inhibitory concentration (MIC) [8] [µg/mL] | Minimal inhibitory concentration (MIC) [9] [µg/mL] | Minimal inhibitory concentration (MIC) [10] [µg/mL] | Minimal inhibitory concentration (MIC) [11] [µg/mL] | Minimal inhibitory concentration (MIC) [12] [µg/mL] | Minimal inhibitory concentration (MIC) [13] [µg/mL] | also measured
1 | FC(OCC1COC(Cn2ccnc2)(c2ccc(Cl)cc2Cl)O1)=C(c1ccc2c(c1)OCO2)C(F)(F)F (centres unmarked) [Ex. 28] | 100 (≈ 178 µM) | 100 (≈ 178 µM) | 25.0 (≈ 44.5 µM) | 25.0 (≈ 44.5 µM) | 1.56 (≈ 2.78 µM) | >100 | 100 (≈ 178 µM) | 100 (≈ 178 µM) | 100 (≈ 178 µM) | 1.56 (≈ 2.78 µM) | 1.56 (≈ 2.78 µM) | 0.78 (≈ 1.39 µM) | 25.0 (≈ 44.5 µM) | 25.0 (≈ 44.5 µM) | 6.25 (≈ 11.1 µM) | 
2 | FC(OCC1COC(Cn2ccnc2)(c2ccc(Cl)cc2Cl)O1)=C(c1ccc(Oc2ccccc2)cc1)C(F)(F)F (centres unmarked) [Ex. 29] | 6.25 (≈ 10.3 µM) | 100 (≈ 164 µM) | >100 | >100 | 1.56 (≈ 2.56 µM) | >100 | >100 | >100 | >100 | 1.56 (≈ 2.56 µM) | 1.56 (≈ 2.56 µM) | 0.20 (≈ 0.328 µM) | 12.5 (≈ 20.5 µM) | 6.25 (≈ 10.3 µM) | 3.13 (≈ 5.14 µM) | 
3 | FC(OCC1COC(Cn2ccnc2)(c2ccc(Cl)cc2Cl)O1)=C(c1cccc(Cl)c1)C(F)(F)F (centres unmarked) [Ex. 30] | 12.5 (≈ 22.7 µM) | 25.0 (≈ 45.3 µM) | 25.0 (≈ 45.3 µM) | 25.0 (≈ 45.3 µM) | 1.56 (≈ 2.83 µM) | >100 | >100 | >100 | >100 | 0.78 (≈ 1.41 µM) | 0.78 (≈ 1.41 µM) | 0.20 (≈ 0.362 µM) | 12.5 (≈ 22.7 µM) | 6.25 (≈ 11.3 µM) | 1.56 (≈ 2.83 µM) | 
4 | FC(OCC1COC(Cn2ccnc2)(c2ccc(Cl)cc2Cl)O1)=C(c1ccc(Cl)cc1)C(F)(F)F (centres unmarked) [Ex. 31] | 6.25 (≈ 11.3 µM) | 6.25 (≈ 11.3 µM) | 12.5 (≈ 22.7 µM) | 12.5 (≈ 22.7 µM) | 0.78 (≈ 1.41 µM) | 25.0 (≈ 45.3 µM) | 25.0 (≈ 45.3 µM) | 12.5 (≈ 22.7 µM) | 12.5 (≈ 22.7 µM) | 1.56 (≈ 2.83 µM) | 1.56 (≈ 2.83 µM) | 0.78 (≈ 1.41 µM) | 6.25 (≈ 11.3 µM) | 3.13 (≈ 5.67 µM) | 1.56 (≈ 2.83 µM) | 
5 | COc1cccc(C(=C(F)OCC2COC(Cn3ccnc3)(c3ccc(Cl)cc3Cl)O2)C(F)(F)F)c1 (centres unmarked) [Example 26] | 3.13 (≈ 5.72 µM) | 6.25 (≈ 11.4 µM) | 6.25 (≈ 11.4 µM) | 6.25 (≈ 11.4 µM) | 0.39 (≈ 0.713 µM) | 25.0 (≈ 45.7 µM) | 12.5 (≈ 22.8 µM) |  | 12.5 (≈ 22.8 µM) | 1.56 (≈ 2.85 µM) | 1.56 (≈ 2.85 µM) | 0.39 (≈ 0.713 µM) | 6.25 (≈ 11.4 µM) | 1.56 (≈ 2.85 µM) | 0.78 (≈ 1.43 µM) | LD50 (ICR mice; female): approximately 2,000 mg/kg; LD50 (ICR mice; male): higher than 2,000 mg/kg; survival at day 7 (ICR mice; single oral dose of 1,000 mg/kg or below): All the mice were alive at day 7; weight loss (ICR mice; single oral doses 10 to 2,000 mg/kg, 7 day test period): no weight loss was observed
6 | C[C@@H]1[C@H](O)[C@@H](C)/C=C/C=C/C=C/C=C/C=C/C=C/C=C/[C@H](O[C@@H]2O[C@H](C)[C@@H](O)[C@H](N)[C@@H]2O)C[C@@H]2O[C@](O)(C[C@@H](O)C[C@@H](O)[C@H](O)CC[C@@H](O)C[C@@H](O)CC(=O)O[C@H]1C)C[C@H](O)[C@H]2C(=O)O [amphotericin B] |  |  |  |  |  |  |  |  |  |  |  |  |  |  |  | LD50 (mouse [14]): 4 mg/kg
7 | CC(=O)N1CCN(c2ccc(OCC3COC(Cn4ccnc4)(c4ccc(Cl)cc4Cl)O3)cc2)CC1 (centres unmarked) [ketoconazole] |  |  |  |  |  |  |  |  |  |  |  |  |  |  |  | LD50 (mouse [15]): 702 mg/kg
8 | (E&Z) 1-{4-[cis-2-(2,4-dichlorophenyl)-2-(1H-1-imidazolylmethyl)-1,3-dioxolan-4-ylmethoxy]-phenoxy}-1,3,3,3-tetrafluoro-2-phenyl-1-propene [Example 19] | 1.56 | 3.13 | 6.25 | 6.25 | 0.78 | 50.0 | >100 | 25.0 | 25.0 | 1.56 | 0.78 | 0.20 | 3.13 | 1.56 | 0.78 | 
